Laboratory results taken from ChEMBL document CHEMBL1681743, “Novel second generation analogs of eribulin. Part III: Blood-brain barrier permeability and in vivo activity in a brain tumor model” (Bioorg Med Chem Lett, 2011).
Where a name gives a salt, the structure may show the parent alone. The source made the active and inactive calls. The calls are words filed in the database; no cut-off is given here.

Tests used:
[1] = Antiproliferative activity against human MES-SA cells; format: functional, cell-based
[2] = Antiproliferative activity against human doxorubicin-resistant MES-SA/Dx5-Rx1 cells; format: functional
U-251 [3] = assay: Antiproliferative activity against human U251 cells; format: functional, cell-based
[4] = Half life in BALB/c mouse at 5 mg/kg, iv; format: ADME, organism-based; design: dose 5 mg/kg, route intravenous; settings: in vivo
[5] = Tmax in BALB/c mouse at 5 mg/kg, iv; format: ADME, organism-based; design: dose 5 mg/kg, route intravenous; settings: in vivo
[6] = Brain penetration index, ratio of AUC (0 to infinity) in brain to plasma of BALB/c mouse at 5 mg/kg, iv; format: ADME, organism-based; design: dose 5 mg/kg, route intravenous
SF-295 [7] = assay: Antiproliferative activity against human SF295 cells; format: functional, cell-based
Mus musculus = assay: AUC (0 to infinity) in BALB/c mouse at 5 mg/kg, iv; format: ADME, organism-based, Brain; design: time infinity, dose 5 mg/kg, route intravenous; settings: in vivo
[8] = Fraction unbound in BALB/c mouse brain at 5 mg/kg, iv; format: ADME, organism-based; design: dose 5 mg/kg, route intravenous
[9] = CSF penetration index, ratio of AUC (0 to infinity) in CSF to plasma of Sprague-Dawley rat at 4 mg/kg, iv; format: ADME, organism-based; design: dose 4 mg/kg, route intravenous
U-251 [10] = assay: Antitumor activity against human U251 cells infected in athymic mouse assessed as increase in mouse survival at 1.1 to 2.5 mg/kg relative to control; format: functional; settings: dose mg/kg 1.1-2.5
SF-295 [11] = assay: Antitumor activity against human SF295 cells infected in athymic mouse assessed as increase in mouse survival at 0.36 to 0.80 mg/kg relative to control; format: functional, organism-based

Work on `C=C1C[C@@H]2CC[C@@]34C[C@H]5O[C@H]6[C@@H](O3)[C@H]3O[C@H](CC[C@@H]3O[C@H]6[C@H]5O4)CC(=O)C[C@@H]3[C@@H](OC)[C@@H](CC(=O)CN4CCOCC4)O[C@H]3C[C@H]3O[C@@H](CC[C@@H]1O2)C[C@@H](C)C3=C` yielded an IC50 [1] of 0.25 nM, an IC50 [2] of 3.12 nM and an IC50 (U-251 [3]) of 0.88 nM.
Compound `C=C(C)CN(CC)CC[C@H]1O[C@H]2C[C@H]3O[C@@H](CC[C@@H]4O[C@@H](CC[C@@]56C[C@H]7O[C@H]8[C@@H](O5)[C@H]5O[C@H](CC[C@@H]5O[C@H]8[C@H]7O6)CC(=O)C[C@@H]2[C@H]1OC)CC4=C)C[C@@H](C)C3=C` has an IC50 [1] of 0.23 nM, an IC50 [2] of 2.89 nM and an IC50 (U-251 [3]) of 0.61 nM.
In the case of `C=C1C[C@@H]2CC[C@@]34C[C@H]5O[C@H]6[C@@H](O3)[C@H]3O[C@H](CC[C@@H]3O[C@H]6[C@H]5O4)CC(=O)C[C@@H]3[C@@H](OC)[C@@H](C[C@H](O)CN)O[C@H]3C[C@H]3O[C@@H](CC[C@@H]1O2)C[C@@H](C)C3=C` [ERIBULIN MESYLATE], the half-life [4] is reported as 46 h, the Tmax [5] is reported as 30 min and the “Ratio AUC” value [6] is reported as 0.55 mL/g. For the same compound, the IC50 (U-251 [3]) was 5.87 nM, the IC50 (SF-295 [7]) was 27.9 nM and the AUC (Mus musculus) was 435 ng·h/g.
For `C=C1C[C@@H]2CC[C@@]34C[C@H]5O[C@H]6[C@@H](O3)[C@H]3O[C@H](CC[C@@H]3O[C@H]6[C@H]5O4)CC(=O)C[C@@H]3[C@@H](OC)[C@@H](CCCN4CCOCC4)O[C@H]3C[C@H]3O[C@@H](CC[C@@H]1O2)C[C@@H](C)C3=C`, the half-life [4] was 4.6 h, the Tmax [5] was 15 min and the fraction unbound [8] was 0.101. For the same compound, the “Ratio AUC” value [6] was 7.7 mL/g, the IC50 [1] was 0.083 nM and the IC50 [2] was 1.3 nM. The IC50 (U-251 [3]) was 1.44 nM and the AUC (Mus musculus) was 10200 ng·h/g.
Compound `C=C1C[C@@H]2CC[C@@]34C[C@H]5O[C@H]6[C@@H](O3)[C@H]3O[C@H](CC[C@@H]3O[C@H]6[C@H]5O4)CC(=O)C[C@@H]3[C@@H](OC)[C@@H](C[C@@H](COC)OC)O[C@H]3C[C@H]3O[C@@H](CC[C@@H]1O2)C[C@@H](C)C3=C` has an IC50 [1] of 0.24 nM and an IC50 (U-251 [3]) of 0.74 nM.
Work on `CC(=O)O[C@H]1C(=O)[C@@]2(C)[C@H]([C@H](OC(=O)c3ccccc3)[C@]3(O)C[C@H](OC(=O)[C@H](O)[C@@H](NC(=O)c4ccccc4)c4ccccc4)C(C)=C1C3(C)C)[C@]1(OC(C)=O)CO[C@@H]1C[C@@H]2O` [PACLITAXEL] yielded an IC50 [2] of over 1000 nM and an IC50 (SF-295 [7]) of 24.6 nM.
`C=C1C[C@@H]2CC[C@@]34C[C@H]5O[C@H]6[C@@H](O3)[C@H]3O[C@H](CC[C@@H]3O[C@H]6[C@H]5O4)CC(=O)C[C@@H]3[C@@H](OC)[C@@H](C[C@@H](CN4CC(C)CC(C)C4)OC)O[C@H]3C[C@H]3O[C@@H](CC[C@@H]1O2)C[C@@H](C)C3=C` (some centres not stated) gave a half-life [4] of 5.3 h, a Tmax [5] of 4.8 min and a fraction unbound [8] of 0.034. For the same compound, the “Ratio AUC” value [6] was 1.7 mL/g, the IC50 [1] was 0.13 nM and the IC50 [2] was 2.41 nM. For the same compound, the IC50 (U-251 [3]) was 2.55 nM, the IC50 (SF-295 [7]) was 0.1 nM and the AUC (Mus musculus) was 3108 ng·h/g.
`C#CCN(C)C[C@H](C[C@H]1O[C@H]2C[C@H]3O[C@@H](CC[C@@H]4O[C@@H](CC[C@@]56C[C@H]7O[C@H]8[C@@H](O5)[C@H]5O[C@H](CC[C@@H]5O[C@H]8[C@H]7O6)CC(=O)C[C@@H]2[C@H]1OC)CC4=C)C[C@@H](C)C3=C)OC` gave an IC50 [1] of 0.18 nM, an IC50 [2] of 0.95 nM and an IC50 (U-251 [3]) of 0.18 nM. It also gave an IC50 (SF-295 [7]) of 0.41 nM.
`C=C1C[C@@H]2CC[C@@]34C[C@H]5O[C@H]6[C@@H](O3)[C@H]3O[C@H](CC[C@@H]3O[C@H]6[C@H]5O4)CC(=O)C[C@@H]3[C@@H](OC)[C@@H](CCNCC(F)F)O[C@H]3C[C@H]3O[C@@H](CC[C@@H]1O2)C[C@@H](C)C3=C` gave an IC50 [1] of 1.91 nM, an IC50 [2] of 31.9 nM and an IC50 (U-251 [3]) of 4.05 nM.
For `C=C1C[C@@H]2CC[C@@]34C[C@H]5O[C@H]6[C@@H](O3)[C@H]3O[C@H](CC[C@@H]3O[C@H]6[C@H]5O4)CC(=O)C[C@@H]3[C@@H](OC)[C@@H](C[C@@H](CN4CCOCC4)OC)O[C@H]3C[C@H]3O[C@@H](CC[C@@H]1O2)C[C@@H](C)C3=C`, the half-life [4] was 0.9 h, the Tmax [5] was 4.8 min and the fraction unbound [8] was 0.113. For the same compound, the “Ratio AUC” value [6] was 1.4 mL/g, the Kp [9] was 2.2 and the IC50 [1] was 0.16 nM. The IC50 [2] was 1.91 nM, the IC50 (U-251 [3]) was 1.97 nM and the AUC (Mus musculus) was 1351 ng·h/g.
Work on `C=C(C)CN(CC)C[C@H](C[C@H]1O[C@H]2C[C@H]3O[C@@H](CC[C@@H]4O[C@@H](CC[C@@]56C[C@H]7O[C@H]8[C@@H](O5)[C@H]5O[C@H](CC[C@@H]5O[C@H]8[C@H]7O6)CC(=O)C[C@@H]2[C@H]1OC)CC4=C)C[C@@H](C)C3=C)OC` yielded an IC50 [1] of 0.23 nM, an IC50 [2] of 2.73 nM and an IC50 (U-251 [3]) of 3.74 nM.
For `C=C1C[C@@H]2CC[C@@]34C[C@H]5O[C@H]6[C@@H](O3)[C@H]3O[C@H](CC[C@@H]3O[C@H]6[C@H]5O4)CC(=O)C[C@@H]3[C@@H](OC)[C@@H](CCN4CCOCC4)O[C@H]3C[C@H]3O[C@@H](CC[C@@H]1O2)C[C@@H](C)C3=C`, the IC50 [1] was 0.12 nM, the IC50 [2] was 2.52 nM and the IC50 (U-251 [3]) was 1.26 nM.
Compound `C=C1C[C@@H]2CC[C@@]34C[C@H]5O[C@H]6[C@@H](O3)[C@H]3O[C@H](CC[C@@H]3O[C@H]6[C@H]5O4)CC(=O)C[C@@H]3[C@@H](OC)[C@@H](CCN4CCC(C(F)(F)F)CC4)O[C@H]3C[C@H]3O[C@@H](CC[C@@H]1O2)C[C@@H](C)C3=C` has an IC50 [1] of 0.11 nM, an IC50 [2] of 0.75 nM and an IC50 (U-251 [3]) of 0.28 nM.
`C=C(C)CN1CCO[C@@H](C[C@H]2O[C@H]3C[C@H]4O[C@@H](CC[C@@H]5O[C@@H](CC[C@@]67C[C@H]8O[C@H]9[C@@H](O6)[C@H]6O[C@H](CC[C@@H]6O[C@H]9[C@H]8O7)CC(=O)C[C@@H]3[C@H]2OC)CC5=C)C[C@@H](C)C4=C)C1` gave a half-life [4] of 1.2 h, a Tmax [5] of 4.8 min and a fraction unbound [8] of 0.024. For the same compound, the “Ratio AUC” value [6] was 1.8 mL/g, the Activity (U-251 [10]) was over 175% and the Activity (SF-295 [11]) was “Active”. For the same compound, the IC50 [1] was 0.25 nM, the IC50 [2] was 1.53 nM and the IC50 (U-251 [3]) was 0.5 nM. For the same compound, the IC50 (SF-295 [7]) was 0.26 nM and the AUC (Mus musculus) was 1362 ng·h/g.
`C=C1C[C@@H]2CC[C@@]34C[C@H]5O[C@H]6[C@@H](O3)[C@H]3O[C@H](CC[C@@H]3O[C@H]6[C@H]5O4)CC(=O)C[C@@H]3[C@@H](OC)[C@@H](C[C@@H](CN4CCC(C(F)(F)F)CC4)OC)O[C@H]3C[C@H]3O[C@@H](CC[C@@H]1O2)C[C@@H](C)C3=C` showed an IC50 [1] of 0.14 nM, an IC50 [2] of 0.83 nM and an IC50 (U-251 [3]) of 0.33 nM.
